One data set has as its target T1, hSTING^REF (Homo sapiens, UniProt Q86WV6).
T1 construct: expressing each of the full length hSTING variants; expressed in transfected cells; host or cells: HEK 293T (deficient in endogenous STING), MSCV2.2 retroviral transduction
In words: IFN-β luciferase reporter assay in HEK 293T cells expressing hSTING REF. Particulars: 10 μM CDN, 6 hours. The class given is cell-based. On the procedure:
(§1) Luciferase Assay. […] After 20 min, stimulation mixtures were removed and normal media was added. After a total of 6 hours, cell lysates were prepared and reporter gene activity measured using the Dual Luciferase Assay System (Promega) on a Spectramax M3 luminometer.

For data set [1], the system named is STING pathway (TBK1, IRF3 phosphorylation). In words: Western blot of pTBK1 and pIRF3 in macrophages and BM-DCs after STING agonist. It is filed as cell-based, mouse. Particulars: WT macrophages; DMXAA 50 μg/ml or ML RR-S2 CDA 50 μM. Here is the method: DMXAA for the same time-points. Proteins were extracted with Triton-X buffer (150 mM sodium chloride, 50 mM Tris, 1% Triton-X, pH 8.0) with proteinase inhibitors (Thermo scientific) and phosphatase inhibitors (Sigma). 30 μg of protein was electrophoresed in 10% SDS-PAGE gels and transferred onto Immobilon-FL membranes (Millipore). Blots were incubated with antibodies specific for phosphorylated TBK1 (Ser172), phosphorylated IRF3 (Ser396), total TBK1, STING and GAPDH (Cell Signaling) or total IRF3 (Invitrogen). Proteins from HEK 293T lines stably expressing STING were extracted with M-PER (Thermo Scientific). 6 μg of protein was loaded onto a 4-12% MES NuPAGE gel (Life Technologies), transferred to nitrocellulose, and probed with anti-HA antibody (Santa Cruz). Anti-rabbit IRDye 680RD label secondary antibody was used for visualization of bands with the Odyssey Imaging system (LI-COR).
(Immunoblotting shows a protein as a band on a membrane.)

The test system of another data set is B16.F10 lung metastases. Briefly: B16 melanoma lung metastasis experiment. The class given is in vivo, mouse. Particulars: flank tumor treated IT, ML RR-S2 CDA 50 μg versus DMXAA 150 μg. On the procedure: (§2) In vivo tumor experiments. 10^6 of B16-SIY tumor cells, 5×10^4 B16.F10 tumor cells, 10^5 4T1 and CT26, or 10^6 other tumor cells were injected s.c. in 100 μl DPBS or HBSS on the right flank of mice. Following tumor implantation, mice were randomized into treatment groups. […] Measurements of tumors were performed twice per week using calipers, and the tumor volume was calculated with the formula: V=(length×width^2)/2. In some experiments, tumor-free survivors were rechallenged with tumor cells on the opposite flank several weeks after the injection of the primary tumor. Naïve mice were used as controls. For the contralateral experiments, mice were implanted on both flanks and only one tumor was treated. For the B16 melanoma lung metastasis experiments, mice were implanted on the flank with 5×10^4 cells B16.F10 on day 0, and then injected intravenously with 1×10^5 cells on day 7. Lungs were harvested on day 28. Administration of compounds, measurements of tumors and counting of lung tumors were performed in a blinded fashion.

In data set [2] the test system is murine bone marrow macrophages (BMMs). In words: qRT-PCR of IFN-β and cytokines in bone marrow macrophages stimulated with CDNs. It is filed as cell-based, mouse. Particulars: WT C57BL/6 BMMs, 5 μM, 6 hours; compared to ML-cGAMP, poly I:C and LPS on a molar equivalent basis. On the procedure:
WT BMM were stimulated with CDN at 5 μM in HBSS with the addition of Effectene (Qiagen) transfection reagent (per kit protocol). […] After a 6 hr incubation, cells were harvested and assessed by real-time qRT-PCR for gene expression of IFN-β1, MCP-1, TNF-α) and IL-6 using the PrimePCR RNA purification and cDNA analysis system, and run on the CFX96 gene cycler (BioRad).
(Real-time PCR tracks product formation cycle by cycle.)

The subject of data set [3] is five hSTING alleles (WT, REF, HAQ, AQ and Q). Briefly: IFN-β luciferase reporter assay in HEK 293T cells expressing hSTING variants. The class given is cell-based, human. Particulars: 10 μM CDN, 6 hours. On the procedure:
as §1

The test system of another data set is 4T-1 tumors. Briefly: Intratumoral treatment of 4T-1 tumors. It is filed as in vivo, mouse. On the procedure:
as §2

For the next data set, the system named is B16.F10 tumors. In words: Intratumoral treatment of established B16.F10 tumors. Particulars: for injection site reactogenicity: three IT injections; for effect on tumor growth: WT C57BL/6 mice, three IT injections over a one-week period. It is filed as in vivo, mouse. Here is the method:
as §2

Data set [4] deals with CT26 rejection antigen AH1. Briefly: IFN-γ ELISPOT against AH1 in CT26-bearing mice. Particulars: 21 days post-implantation. It is filed as in vivo, mouse. Here is the method: IFN-γ ELISPOT and SIY-pentamer staining. […] […] Spots were developed using the BD mouse IFN-γ kit according to the manufacturer's instructions and the number of spots was measured using an Immunospot Series 3 Analyzer and analyzed using ImmunoSpot software (Cellular Technology Ltd). For SIY-pentamer staining, splenocytes were preincubated for 15 min with anti-CD16/32 monoclonal antibody (93) to block potential nonspecific binding, and labeled with PE-MHC class I pentamer (Proimmune) consisting of murine H-2K^b complexed to […] (SIY) peptide, anti-TCRβ-AF700 (H57-597), anti-CD8-Pacific Blue (53-6.7), anti-CD4-Pacific Orange (RM4-5) (all antibodies from BioLegend) and the Fixable Viability Dye eFluor 450 (eBioscience). Stained cells were analyzed using LSR II cytometer with FACSDiva software (BD). Data analysis was conducted with FlowJo software (Tree Star).

For the next data set, the system named is CT26 colon carcinoma. In words: Intratumoral treatment of CT26 colon carcinoma. The class given is in vivo, mouse. On the procedure:
as §2

Setting [5] is: BALB/c mice, three IT doses of 50 μg.
Where [6] appears, read: bilateral tumors, IT injection into one tumor.
Where [7] appears, read: mice cured of their primary tumor.

T1 sequence (Q86WV6 whole entry): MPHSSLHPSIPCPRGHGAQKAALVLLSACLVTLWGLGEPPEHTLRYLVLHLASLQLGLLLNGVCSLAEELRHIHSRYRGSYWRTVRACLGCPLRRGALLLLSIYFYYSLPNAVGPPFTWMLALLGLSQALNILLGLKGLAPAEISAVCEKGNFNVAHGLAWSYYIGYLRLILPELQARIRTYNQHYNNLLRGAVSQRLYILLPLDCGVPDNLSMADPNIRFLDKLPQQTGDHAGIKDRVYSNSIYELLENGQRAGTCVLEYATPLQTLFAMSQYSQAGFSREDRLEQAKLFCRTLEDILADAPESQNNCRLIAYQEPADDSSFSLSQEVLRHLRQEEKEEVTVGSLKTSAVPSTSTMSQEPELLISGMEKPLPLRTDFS

On to `Nc1ncnc2c1ncn2[C@@H]1O[C@@H]2COP(=O)(O)O[C@H]3[C@@H](O)[C@H](n4cnc5c(N)ncnc54)O[C@@H]3COP(=O)(O)O[C@H]2[C@H]1O` [CDA], for which the IFN-β reporter responsiveness entry on hSTING^REF is reported as “responded poorly”.

In the case of `Nc1nc2c(ncn2[C@@H]2O[C@@H]3COP(=O)(O)O[C@H]4[C@@H](O)[C@H](n5cnc6c(=O)[nH]c(N)nc65)O[C@@H]4COP(=O)(O)O[C@H]3[C@H]2O)c(=O)[nH]1` [CDG], the IFN-β reporter responsiveness entry at hSTING^REF is recorded as “responded poorly”.

For the compound `Nc1ncnc2c1ncn2[C@@H]1O[C@@H]2COP(O)(=S)O[C@@H]3C(O)[C@@H](COP(O)(=S)O[C@H]2[C@H]1O)O[C@H]3n1cnc2c(N)ncnc21` (stereo partly shown) [ML RR-S2 CDA, dithio-(Rp, Rp)-[cyclic[A(2′,5′)pA(3′,5′)p]]], the “phosphorylation of TBK1 and IRF3” value in [1] was “induce phosphorylation of TBK1 and IRF3”. Besides, the “inhibition of growth of distant lung metastases” value with B16.F10 lung metastases is “more significant inhibition of growth of distant lung metastases than DMXAA”. The “expression of pro-inflammatory cytokines (IFN-β)” value in [2] was “highest expression of pro-inflammatory cytokines”. Moreover, the IFN-β reporter activation result in [3] is “potently activated all five hSTING alleles”. Moreover, the tumor regression entry in the data set on 4T-1 tumors (setting [5]) was “significant and durable tumor regression”; in the data set on CT26 colon carcinoma (setting [5]), “significant and durable tumor regression”. The “regression of the contralateral untreated tumor” value in the data set on 4T-1 tumors (setting [6]) and with CT26 colon carcinoma (setting [6]) was “significant regression of the contralateral untreated tumor” in each case. Moreover, the resistance to re-challenge entry in the data set with 4T-1 tumors (setting [7]) and in the data set on CT26 colon carcinoma (setting [7]) was “completely resistant to re-challenge” in each case. In addition, in the data set on B16.F10 tumors (given IT at the same doses (50 μg)), the “potency compared to CpG-based TLR9 agonists and multiple other TLR agonists” value was “significantly increased potency”. In addition, the injection site reactogenicity entry in the data set on B16.F10 tumors is “no injection site reactogenicity”. Also, the “immune responses against AH1 (IFN-γ ELISPOT)” value in data set [4] is “improved immune responses”.

Consider `Nc1nc2c(ncn2[C@@H]2O[C@@H]3CO[P@@](=O)(S)O[C@@H]4[C@H](O)[C@@H](CO[P@@](=O)(S)O[C@H]3[C@H]2O)O[C@H]4n2cnc3c(=O)[nH]c(N)nc32)c(=O)[nH]1` [ML RR-S2 CDG], for which the “expression of pro-inflammatory cytokines (IFN-β)” value in data set [2] is on record as “highest expression of pro-inflammatory cytokines”. For the same compound, the IFN-β reporter activation entry in [3] was “potently activated all five hSTING alleles”. Also, the “efficacy at lower dose levels” value in the data set on B16.F10 tumors (lower dose levels) was “not efficacious”. The therapeutic index result with B16.F10 tumors (mouse, in vivo) was “narrow therapeutic index”. The injection site reactogenicity result with B16.F10 tumors was “reactogenic”.

In the case of `Nc1ncnc2c1ncn2C1OC2COP(=O)(O)OC3C(O)C(COP(=O)(O)OC2C1O)OC3n1cnc2c(N)ncnc21` (stereo not shown) [ML-CDA], the “effect on tumor growth” value in the data set with B16.F10 tumors is reported as “modest effects on tumor growth”.

Turning to `Nc1nc2c(ncn2C2OC3COP(=O)(O)OC4C(O)C(COP(=O)(O)OC3C2O)OC4n2cnc3c(=O)[nH]c(N)nc32)c(=O)[nH]1` (stereo not shown) [ML-CDG], the “effect on tumor growth” value with B16.F10 tumors is “modest effects on tumor growth”.

The values are drawn from patent US20180028553A1, “USE OF STING AGONIST AS CANCER TREATMENT” (The University of Chicago, priority 2013, published 2018).
